The target of one assay is MAPKAPK2 (MK-2) (Homo sapiens, UniProt P49137). Briefly: Determination of MK-2 IC50 (HSP-peptide phosphorylation, anion exchange resin capture assay). The assay is classed as biochemical. The gist of the method:
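MAPKAPK2, preactivated by p38α with 0.25 mM ATP for 1 h at 30° C, used at 15 nM to phosphorylate HSP-peptide with 0.03 mM ATP plus [γ33P]ATP, pH 7.5, 2% DMSO, 30 min at 30° C. Labelled peptide counted after anion-exchange resin capture; IC50 from six ten-fold dilutions, triplicate.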

For a further assay, the target named is MK-3 (Homo sapiens, UniProt Q16644). Briefly: MK-3 inhibition IC50 (similar method to MK-2, with appropriate modifications). The assay is classed as biochemical. Conditions: read-out: MK-3 Avg. IC50.
The mark [1] stands for this setting: Table 2, pyrazolylpyrazole MK-2 inhibitors, read-out: MK-2 Avg. IC50.
The mark [2] stands for this setting: Table 2, pyrazolylpyrazole MK-2 inhibitors.
Setting [3] is: Table 1, phenoxypyrazole MK-2 inhibitors, read-out: MK-2 Avg, IC50.
[4] abbreviates: Table 1, phenoxypyrazole MK-2 inhibitors.

Molecules are shown by their SMILES. Read-outs that look alike come from different tables or passages of the source.

MAPKAPK2 (MK-2), sequence (P49137 whole entry, species assumed): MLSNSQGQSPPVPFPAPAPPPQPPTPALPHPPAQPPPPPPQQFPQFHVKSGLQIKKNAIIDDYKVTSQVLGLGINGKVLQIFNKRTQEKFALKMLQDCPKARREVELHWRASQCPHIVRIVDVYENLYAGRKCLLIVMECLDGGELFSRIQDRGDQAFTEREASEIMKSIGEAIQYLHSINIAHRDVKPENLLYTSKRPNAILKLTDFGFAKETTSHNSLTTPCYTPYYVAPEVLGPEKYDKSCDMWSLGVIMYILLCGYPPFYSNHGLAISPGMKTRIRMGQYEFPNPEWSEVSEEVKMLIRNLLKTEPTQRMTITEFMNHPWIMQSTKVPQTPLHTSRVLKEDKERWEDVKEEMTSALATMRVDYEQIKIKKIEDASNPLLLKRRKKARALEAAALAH
MK-3, sequence (Q16644 whole entry, species assumed): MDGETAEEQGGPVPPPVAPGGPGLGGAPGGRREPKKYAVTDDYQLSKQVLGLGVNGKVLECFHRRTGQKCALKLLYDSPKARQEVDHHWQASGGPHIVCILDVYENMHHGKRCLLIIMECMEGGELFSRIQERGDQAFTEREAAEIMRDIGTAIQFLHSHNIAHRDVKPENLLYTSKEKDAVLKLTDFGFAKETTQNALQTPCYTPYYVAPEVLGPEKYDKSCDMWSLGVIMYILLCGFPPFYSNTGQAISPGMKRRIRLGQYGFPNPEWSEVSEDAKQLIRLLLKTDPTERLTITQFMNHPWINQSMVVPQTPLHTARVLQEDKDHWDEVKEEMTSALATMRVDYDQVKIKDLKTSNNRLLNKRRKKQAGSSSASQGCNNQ

As a reminder, the IC50 is the concentration at which inhibition is half-maximal. For the compound `CCOC(=O)c1nn(-c2ccccc2)c2c1CCc1c-2cnn1Cc1ccccc1` [Example 55], the IC50 at MAPKAPK2 (MK-2) (setting [1]) and at MK-3 (setting [2]) was at least 200 µM throughout.
On to `O=C(O)c1c2c(nn1CCCNCCc1ccc(-c3cccnc3)cc1)-c1ccncc1CC2` [Example 55], for which the half-inhibitory concentration (IC50) on MAPKAPK2 (MK-2) (read-out: MK-2 Avg. IC50) came to 0.522 µM; on MK-3 it was 11.2 µM.
As to `C=CCC1Cc2c(C(N)=O)n[nH]c2-c2ccc(O)cc21` (stereo not drawn) [Example 56], the concentration for half-maximal inhibition (IC50) at MAPKAPK2 (MK-2) (setting [3]) is 139 µM; at MK-3 (setting [4]) it was above 200 µM.
For the compound `O=C(O)c1c2c(nn1CCCNCCc1ccc(Cl)cc1)-c1ccncc1CC2` [Example 56], the concentration for half-maximal inhibition (IC50) at MAPKAPK2 (MK-2) (read-out: MK-2 Avg. IC50) was 0.551 µM; at MK-3 it was 7.86 µM.
With `COc1cc2c(cc1-c1cccc(S(C)(=O)=O)c1)-c1nn(CCCNC(=O)OC(C)(C)C)c(C(=O)O)c1CC2` [Example 57], the IC50 was 143 µM at MAPKAPK2 (MK-2) (setting [3]) and above 200 µM at MK-3 (setting [4]).
For the compound `O=C(O)c1c2c(nn1CCCNCCc1ccc(Cl)s1)-c1ccncc1CC2` [Example 57], the IC50 at MAPKAPK2 (MK-2) (read-out: MK-2 Avg. IC50) worked out at 0.559 µM; on MK-3 it was 8.85 µM.
On to `COc1cc2c(cc1-c1cccn1C(=O)OC(C)(C)C)-c1nn(CCCNC(=O)OC(C)(C)C)c(C(=O)O)c1CC2` [Example 58], for which the IC50 on MAPKAPK2 (MK-2) (setting [3]) was 148 µM; on MK-3 (setting [4]), above 200 µM.
Regarding `N#Cc1ccc(CCCNCCCn2nc3c(c2C(=O)O)CCc2cnccc2-3)cc1` [Example 58], the concentration for half-maximal inhibition (IC50) at MAPKAPK2 (MK-2) (read-out: MK-2 Avg. IC50) was 0.561 µM; on MK-3, 44.3 µM.
As to `CC1Cc2cc(O)ccc2-c2n[nH]c(C(=O)O)c21` (stereo not drawn) [Example 59], the IC50 on MAPKAPK2 (MK-2) (setting [3]) was 148 µM; at MK-3 (setting [4]), above 200 µM.
Consider `CCOC(=O)c1c2c(nn1CCNC(=O)OC(C)(C)C)-c1cnn(C(c3ccccc3)(c3ccccc3)c3ccccc3)c1CC2` [Example 59], for which the half-maximal inhibitory concentration (IC50) on MAPKAPK2 (MK-2) (setting [1]) and at MK-3 (setting [2]) was at least 200 µM in each case.
Consider `Cc1ccc(C(C)CCNCCCn2nc3c(c2C(=O)O)CCc2cnccc2-3)o1` (stereo not drawn) [Example 59], for which the results for the IC50 on MAPKAPK2 (MK-2) (read-out: MK-2 Avg. IC50) and at MK-3 were 0.574 µM and 22.5 µM, respectively.
On to `C=CCC1Cc2c(C(=O)O)n[nH]c2-c2ccc(O)cc21` (stereo not drawn) [Example 60], for which the IC50 on MAPKAPK2 (MK-2) (setting [3]) was 148 µM; at MK-3 (setting [4]), above 200 µM.
With `O=C(O)c1c2c(nn1CCCNCCc1ccc(-c3csc4ccccc34)cc1)-c1ccncc1CC2` [Example 60], the IC50 at MAPKAPK2 (MK-2) (read-out: MK-2 Avg. IC50) stood at 0.575 µM; on MK-3 it was 15.6 µM.
On to `COCCOCOc1ccc2c(c1)CCc1c-2n[nH]c1C(=O)O` [Example 61], for which the IC50 is 150 µM on MAPKAPK2 (MK-2) (setting [3]) and above 200 µM at MK-3 (setting [4]).
On to `CC(=O)c1ccc(CCCNCCCn2nc3c(c2C(=O)O)CCc2cnccc2-3)cc1` [Example 63], for which the half-maximal inhibitory concentration (IC50) at MAPKAPK2 (MK-2) (read-out: MK-2 Avg. IC50) came out at 0.603 µM; on MK-3 it was 12.6 µM.
`COC(=O)c1[nH]nc2c1CCc1cc(O)c(O)cc1-2` [Example 64]: the values for the concentration for half-maximal inhibition (IC50) at MAPKAPK2 (MK-2) (setting [3]) and at MK-3 (setting [4]) were 154 µM and above 200 µM, respectively.
For `NCCCn1nc2c(c1C(=O)O)CCc1cnccc1-2` [Example 64], the IC50 on MAPKAPK2 (MK-2) (read-out: MK-2 Avg. IC50) worked out at 0.62 µM; at MK-3, 22.8 µM.
Take `CS(=O)(=O)c1ccc(CCCNCCCn2nc3c(c2C(=O)O)CCc2cnccc2-3)cc1` [Example 65]: the figures for the IC50 at MAPKAPK2 (MK-2) (read-out: MK-2 Avg. IC50) and on MK-3 were 0.622 µM and 26.1 µM, respectively.
With `Cn1nc(C(N)=O)c2c1-c1ccc(O)cc1CC2` [Example 65], the values for the IC50 at MAPKAPK2 (MK-2) (setting [3]) and on MK-3 (setting [4]) were 158 µM and above 200 µM, respectively.
On to `CC(C)(C)OC(=O)NCCCn1nc2c(c1C(N)=O)CCc1[nH]ncc1-2` [Example 66], for which the IC50 on MAPKAPK2 (MK-2) (setting [1]) and on MK-3 (setting [2]) was at least 200 µM in each case.
Regarding `COc1ccccc1-c1cc2c(cn1)CCc1c-2nn(CCCN)c1C(=O)O` [Example 66], the IC50 was 0.632 µM at MAPKAPK2 (MK-2) (read-out: MK-2 Avg. IC50) and 6.87 µM on MK-3.
As to `COc1cc2c(cc1-c1ccncc1)-c1nn(CCCNC(=O)OC(C)(C)C)c(C(=O)O)c1CC2` [Example 67], the 50% inhibitory concentration (IC50) was 165 µM on MAPKAPK2 (MK-2) (setting [3]) and above 200 µM at MK-3 (setting [4]).
Consider `N#CCCn1nc(C(N)=O)c2c1-c1cn[nH]c1CC2` [Example 67], for which the IC50 at MAPKAPK2 (MK-2) (setting [1]) and at MK-3 (setting [2]) was at least 200 µM each time.
`NCc1cccc(-c2ccc(CCNCCCn3nc4c(c3C(=O)O)CCc3cnccc3-4)cc2)c1` [Example 67]: the figures for the IC50 at MAPKAPK2 (MK-2) (read-out: MK-2 Avg. IC50) and on MK-3 were 0.663 µM and 10 µM, respectively.
